Test results as given in paper PMC9781827, “Isolation and Identification of Anti-Inflammatory Peptide from Goose Blood Hydrolysate to Ameliorate LPS-Mediated Inflammation and Oxidative Stress in RAW264.7 Macrophages” (Molecules, 2022).

What was measured:
RAW264.7 macrophages = test: Viability / cytotoxicity of RAW264.7 macrophages; format: cell-based; details: for viability of RAW264.7 macrophages: 3.0 μg/mL LPS, mean ± S.D., repeated three times
Description: The method of RAW264.7 macrophage culture and treatments were based on the study of Li et al.. RAW264.7 macrophages (Lot number: BH0799, Chinese Academy of Sciences, Shanghai, China) were grown in DMEM-F medium (1:1) containing 3.15 g/L glucose, 0.365 g/L l-glutamine, 3.57 g/L HEPES, 10% FBS and 1% antibiotics at 37 °C in an atmosphere with 5% CO2 and 90% relative humidity. […] The optimal concentration of LPS for inducing inflammation in the RAW264.7 macrophage was ensured according to cell viability. Furthermore, RAW264.7 macrophages were cultured with different concentrations of GBP (100 μg/mL, 200 μg/mL and 400 μg/mL) to evaluate the cytotoxicity of GBP as described above. The ability of GBP to protect RAW264.7 macrophages was evaluated. In the LPS + GBP group, the macrophages medium supplemented with 200 μg/mL GBP was incubated for 2 h. Then, the macrophages medium was substituted with a macrophages medium supplemented with 1.0 μg/mL LPS and incubated for 24 h. In the LPS group, standard macrophages medium incubated for 2 h. Then, the standard macrophages medium was substituted with macrophages medium supplemented with 1.0 μg/mL LPS and incubated for 24 h. In the CTRL group, standard macrophages medium incubated for 2 h, Then, the standard macrophages medium was replaced with a new one and incubated for 24 h. Finally, the macrophages medium and macrophages were collected for further analysis.

iNOS = test: Western blot of iNOS in RAW264.7 macrophages; format: cell-based; details: LPS group vs CTRL group, p < 0.05
Description: RAW264.7 macrophages were washed with cold PBS and homogenized with two small magnetic beads (2 mm) and 10× volume of RIPA buffer containing 1% protease inhibitors for 60 s. Then the supernatant was collected after centrifuging at 12,000× g for 10 min at 4 °C, which was the total protein solution. The concentration of protein in the total protein solution was measured by BCA kits. The protein concentration of the supernatant was diluted to 2.0 mg/mL and mixed with an equal volume of buffer (0.25 mol/L Tris-HCl buffer, pH 6.8, containing 4% SDS and 20% glycerol with 20 mmol/L 2-mercaptoethanol). The stacking gel and separating gel were made of 5% (w/v) and 10% (w/v) polyacrylamide, respectively. Electrophoresis was carried out at 80 V until the dye front reached the bottom of the stacking gel, and the gel was run at 120 V until the dye front reached the bottom of the separating gel (165-8001, Bio-Rad Mini-PROTEAN Tetra Electrophoresis System). The PVDF membrane was covered on the gel and transferred membrane at 300 mA for 30 min. The membrane was moved into a decolorization shaker with 5% skim milk (0.5% TBST) and blocked for 1 h at room temperature. […] The film was scanned and archived, processed and decolorized by Photoshop, and the optical density value of the target band was analysed by ImageJ software processing system.

lipopolysaccharide [LPS]
viability of RAW264.7 macrophages (RAW264.7 macrophages; 24 h, Figure 1A): approximately 51.51 ± 4.29%
viability of RAW264.7 macrophages (RAW264.7 macrophages; LPS group of Figure 1C (CTRL 100 ± 7.35%)): 51.57 ± 7.07%
LPS concentration resulting in 50% RAW264.7 macrophages death (RAW264.7 macrophages; 24 h, estimated from viability at 3.0 μg/mL): around 3.0 μg/mL
protein expression level of iNOS (iNOS): higher
